From patent US20210386737A1, “DIHYDROIMIDAZOPYRAZINONE COMPOUND, COMPOSITION INCLUDING SAME, AND USE THEREOF” (priority 2018, published 2021)

Assays:
ERK2 kinase = molecular target: T1, ERK2 kinase (Homo sapiens, UniProt P28482); test: ERK2 kinase inhibition (ADP-Glo); type: biochemical; conditions: ADP-Glo kit, 20 minutes reaction at room temperature
T1 construct: purchased Promega V1961
Source text: ERK2 kinase (Promega, catalog No. V1961), RET (V804M), Active (Signalchem, catalog No, R02-12GG), ADP-Glo™ kit (Promega, catalog No. V9102), GDC-0994 (MCE, catalog No. HY-15947), ATP (Promega, catalog No. V910B), DMSO (Sigma, catalog No. D8418), DTT (Invitrogen, catalog No. P2325), 384-well plate (Greiner, catalog No. 784075), polypropylene 384-well plate (Labcyte, catalog No. P-05525-BC), polypropylene 96-well plate (Nunc, catalog No. 249944), plate shaker (Thermo, catalog No. 4625-1 CECN/THZ Q), centrifuge (Eppendorf, catalog No. 5810R), multilabel ELISA reader Envision 2104 multi-label Reader (PerkinElmer, catalog No. 74785), Echo acoustic dispenser (Labcyte, catalog No. 550).
Compound formulation: The test compounds were dissolved in DMSO to prepare a 10 mM stock solution. Then, the stock solution was diluted 10 times with a 3-fold gradient. When addition, 10-fold dilution was made with buffer solution.
ERK2 kinase assay: In 1× kinase buffer solution, ERK2 kinase was mixed with pre-formulated and diluted compounds of different concentrations for 10 minutes in duplicate for each concentration. The corresponding substrate and ATP were added thereto, and reacted at room temperature for 20 minutes (both a negative and a positive control were set, wherein the negative is blank control, and the positive control is GDC-0994). Detection reagent was added after the reaction is complete (reagent in ADP-Glo™ kit), and after 40 minutes of incubation at room temperature, Envision 2104 multi-label Reader ELISA reader was used for detection of enzyme activities under the presence of compounds of the present disclosure with different concentrations, and the inhibitory activities of different concentrations of compounds on enzyme activity were calculated. GraphPad Prism 6.0 software was used for data analysis, nonlinear curve regression was used to fit the data to get the dose-response curve, thereby IC50 values were calculated.

[1] = system: phospho-p90RSK in A375 cell line; test: A375 cell assay (phospho-p90RSK sandwich ELISA); type: cell-based; conditions: Homo sapiens, A-375; inhibition of phospho-p90RSK, A375 cells (BRAF V600E), 4 hours incubation
Protocol: The cells in the logarithmic growth phase were taken and the trypan blue exclusion method was used to detect the cell viability to ensure that the cell viability is above 90%. The cell concentration was adjusted, and 150 μL cell suspension was added to a 96-well plate, which was incubated at 37° C., 5% CO2 for 16 h. The maximum concentration of the drug to be tested was 10 μM, which was diluted into 10 concentrations with a 3-fold gradient dilution, 50 μL drug solution was added to each well of the 96-well plate in duplicate, and incubation was continued for 4 hours. After removing the medium, 0.2 ml cell lysis solution and […] were added to each well, which was incubated on ice for 30 mm, and centrifuged for 10 min at 4° C. to afford cell lysis solution. PathScan®Phospho-p90RSK (Thr359) Sandwich ELISA Kit (CST, catalog No. 91959C) was used for detecting the inhibitory rate of the compounds of the present disclosure on phospho-p90RSK, to each well 100 μL cell lysis solution was added, and incubated at 4° C. overnight. The plate was washed, added with 100 μL reconstituted Detection Antibody, and incubated at 37° C. for 1 h. The plate was washed, added with 100 μL reconstituted HRP-Linked secondary antibody, and incubated at 37° C. for 30 min. The plate was washed, added with 100 μL TMB Substrate, and after incubating at 25° C. for 30 min, 100 μL STOP Solution was added, and EnVision (Perkin Elmer 2104) was used to detect fluorescence value, and inhibitory rates under the effect of different concentrations of compounds were calculated. The calculation of IC50 was carried out using Prism Graphpad 8.0, software.
Phospho-p90RSK cell assay was conducted in A375 cell line, which has human malignant melanoma with BRAF V600E mutation that upregulates the MAPK pathway, and therefore has increased endogenous levels of phospho-ERK and phospho-p90RSK.

T1 sequence (P28482 whole entry): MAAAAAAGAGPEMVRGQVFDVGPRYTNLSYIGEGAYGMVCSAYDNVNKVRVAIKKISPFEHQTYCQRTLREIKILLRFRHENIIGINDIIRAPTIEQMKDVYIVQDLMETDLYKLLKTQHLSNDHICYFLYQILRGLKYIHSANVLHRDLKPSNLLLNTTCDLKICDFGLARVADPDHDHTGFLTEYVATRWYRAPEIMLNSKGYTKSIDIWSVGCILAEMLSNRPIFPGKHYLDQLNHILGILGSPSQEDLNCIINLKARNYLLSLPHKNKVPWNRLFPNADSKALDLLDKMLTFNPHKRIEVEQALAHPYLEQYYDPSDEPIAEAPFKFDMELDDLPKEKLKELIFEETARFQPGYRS

| SMILES | IC50 (ERK2 kinase) | IC50 [1] |
| --- | --- | --- |
| [2H]C([2H])(c1ccc(F)c(F)c1)N1C(=O)c2nc(-c3nc(Nc4ccnn4C([2H])([2H])[2H])ncc3C)cn2C[C@@H]1COC [Compound I-3, (R)-7-((3,4-difluorophenyl)methyl-d2)-6-(methoxymethyl)-2-(5-methyl-2-((1-(methyl-d3)-1H-pyrazol-5-yl)amino)pyrimidin-4-yl)-6,7-dihydroimidazo[1,2-a]pyrazin-8(5H)-one] | 0.00331 µM | 0.0346 µM |
| [2H]C([2H])([2H])n1nccc1Nc1ncc(C)c(-c2cn3c(n2)C(=O)N(Cc2ccc(F)c(F)c2)[C@@H](COC)C3)n1 [Compound I-1, (R)-7-(3,4-difluorobenzyl)-6-(methoxymethyl)-2-(5-methyl-2-((1-(methyl-d3)-1H-pyrazol-5-yl)amino)pyrimidin-4-yl)-6,7-dihydroimidazo[1,2-a]pyrazin-8(5H)-one] | – | 0.0301 µM |
| [2H]C([2H])([2H])OC[C@H]1Cn2cc(-c3nc(Nc4ccnn4C([2H])([2H])[2H])ncc3C)nc2C(=O)N1Cc1ccc(F)c(F)c1 [Compound I-5-1, (R)-7-(3,4-difluorobenzyl)-6-((methoxy-d3)-methyl)-2-(5-methyl-2-((1-(methyl-d3)-1H-pyrazol-5-yl)amino)pyrimidin-4-yl)-6,7-dihydroimidazo[1,2-a]pyrazin-8(5H)-one] | 0.00275 µM | 0.0296 µM |

The remaining lines, values ahead:

| IC50 (ERK2 kinase) | IC50 [1] | SMILES |
| --- | --- | --- |
| 0.00401 µM | 0.0387 µM | COC[C@H]1Cn2cc(-c3nc(Nc4ccnn4C)ncc3C)nc2C(=O)N1Cc1ccc(F)c(F)c1 [AZD0364, (R)-7-(3,4-difluorobenzyl)-6-(methoxymethyl)-2-(5-methyl-2-((1-methyl-1H-pyrazol-5-yl)amino)pyrimidin-4-yl)-6,7-dihydroimidazo[1,2-a]pyrazin-8(5H)-one, reference compound] |
| 0.00309 µM | 0.0249 µM | [2H]C([2H])([2H])OC[C@H]1Cn2cc(-c3nc(Nc4ccnn4C)ncc3C)nc2C(=O)N1Cc1ccc(F)c(F)c1 [Compound I-4-1, (R)-7-(3,4-difluorobenzyl)-6-((methoxy-d3)-methyl)-2-(5-methyl-2-((1-methyl-1H-pyrazol-5-yl)amino)pyrimidin-4-yl)-6,7-dihydroimidazo[1,2-a]pyrazin-8(5H)-one] |
